Test results reported in patent publication US9849130B2 (KamTek, Inc., priority 2014, dated 2017).
≈ marks a conversion by molar mass, not a printed value. Where “and” joins values, the source holds several entries; their conditions need not be identical. Equal entries are not always repeated. Where two headings read alike, the source gives them in different places.

How the values were obtained:
C. perfringens MH310 = assay: microbe, parasite or virus in culture; type: cell-based; settings: Clostridium perfringens, MH310, C. perfringens MH310
C. difficile = assay: Minimum bactericidal concentration (MBC) against C. difficile; type: cell-based, Clostridium difficile; settings: for MBC: Clostridioides difficile
CD strains = assay: In vitro activity of CFM + additional antimicrobial agent against CD (MIC alone/combination, FIC, ΣFIC); type: cell-based, Clostridium difficile; settings: for MIC: Clostridioides difficile, read-out: MIC alone
[1] = Test 1, CD strain VPI 10463, CFM + VAN
[2] = Test 9, CD strain NR32885, CFM + VAN
[3] = Test 11, CD strain NR32885, CFM + VAN
[4] = Test 12, CD strain NR32885, CFM + MET
[5] = Test 18, CD strain NR32888, CFM + VAN
[6] = Test 19, CD strain NR32888, CFM + MET
[7] = Test 20, CD strain NR32888, CFM + VAN
[8] = Test 2, CD strain VPI 10463, CFM + VAN
[9] = Test 3, CD strain VPI 10463, CFM + MET
[10] = Test 4, CD strain VPI 10463, CFM + MET
[11] = Test 5, CD strain NR32889, CFM + VAN
[12] = Test 6, CD strain NR32890, CFM + VAN
[13] = Test 7, CD strain NR32885, CFM + VAN
[14] = Test 8, CD strain NR32885, CFM + MET
[15] = Test 10, CD strain NR32885, CFM + MET
[16] = Test 13, CD strain BAA1805 (BI/NAP1/027), CFM + VAN
[17] = Test 14, CD strain BAA1805 (BI/NAP1/027), CFM + MET
[18] = Test 15, CD strain BAA1805 (BI/NAP1/027), CFM + MET
[19] = Test 16, CD strain BAA1805 (BI/NAP1/027), CFM + VAN
[20] = Test 17, CD strain BAA1805 (BI/NAP1/027), CFM + MET

## CC(C)N=c1cc2n(-c3ccc(Cl)cc3)c3ccccc3nc-2cc1Nc1ccc(Cl)cc1 [CFM, 3-(p-chloroanilino)-10-(p-chlorophenyl)-2,10-dihydro-2-iso-propyliminophenazine]
C. perfringens MH310; BB
  MIC: 0.5 µg/mL (≈ 1.06 µM)
C. perfringens MH310; BHI
  MIC: 1 µg/mL (≈ 2.11 µM)
C. difficile
  MBC/MIC: 2 and 1
  MBC/MIC ratio range: 1-2
C. difficile; CD isolate BAA1805 (hyper-virulent strain BI/NAP1/027)
  MBC/MIC: 1
C. difficile; BAA1805
  MBC: 0.125 µg/mL (≈ 0.264 µM)
C. difficile; CD isolate NR13430, read-out: MBC
  MBC: 0.25 µg/mL (≈ 0.528 µM)
C. difficile; CD isolate NR13432, read-out: MBC
  MBC: 0.25 µg/mL (≈ 0.528 µM)
C. difficile; CD isolate NR13437, read-out: MBC
  MBC: 0.25 µg/mL (≈ 0.528 µM)
C. difficile; CD isolate NR32882, read-out: MBC
  MBC: 0.5 µg/mL (≈ 1.06 µM)
C. difficile; CD isolate NR32883, read-out: MBC
  MBC: 0.5 µg/mL (≈ 1.06 µM)
C. difficile; CD isolate NR332884, read-out: MBC
  MBC: 0.25 µg/mL (≈ 0.528 µM)
C. difficile; CD isolate VPI10463, read-out: MBC
  MBC: 0.25 µg/mL (≈ 0.528 µM)
CD strains; BAA1805, Test 13, CD strain BAA1805 (BI/NAP1/027), CFM + VAN
  MIC: 0.25 µg/mL
CD strains; BAA1805, Test 14, CD strain BAA1805 (BI/NAP1/027), CFM + MET
  MIC: 0.25 µg/mL
CD strains; BAA1805, Test 15, CD strain BAA1805 (BI/NAP1/027), CFM + MET
  MIC: 0.25 µg/mL
CD strains; BAA1805, Test 16, CD strain BAA1805 (BI/NAP1/027), CFM + VAN
  MIC: 0.25 µg/mL
CD strains; BAA1805, Test 17, CD strain BAA1805 (BI/NAP1/027), CFM + MET
  MIC: 0.25 µg/mL
CD strains; [1]
  MIC: 0.25 µg/mL
  FIC: 0.124
  MIC combination: 0.031 µg/mL
CD strains; [2]
  MIC: 0.25 µg/mL
  FIC: 0.25
  MIC combination: 0.062 µg/mL
CD strains; [3]
  MIC: 0.25 µg/mL
  FIC: 0.25
  MIC combination: 0.062 µg/mL
CD strains; [4]
  MIC: 0.25 µg/mL
  FIC: 0.031
  MIC combination: 0.0078 µg/mL
CD strains; [5]
  MIC: 0.25 µg/mL
  FIC: 0.5
  MIC combination: 0.125 µg/mL
CD strains; [6]
  MIC: 0.25 µg/mL
  FIC: 0.062
  MIC combination: 0.015 µg/mL
CD strains; [7]
  MIC: 0.25 µg/mL
  FIC: 0.25
CD strains; Test 21, CD strain NR32888, CFM + MET
  MIC: 0.25 µg/mL
CD strains
  MIC: 0.125 µg/mL
CD strains; Test 1, CD strain VPI 10463, sum for combination CFM + VAN
  ΣFIC: 0.374
CD strains; [8]
  FIC: 0.0312
  MIC combination: 0.0039 µg/mL
CD strains; Test 2, CD strain VPI 10463, sum for combination CFM + VAN
  ΣFIC: 0.281
CD strains; [9]
  FIC: 0.5
  MIC alone: 0.125 µg/mL
  MIC combination: 0.062 µg/mL
CD strains; Test 3, CD strain VPI 10463, sum for combination CFM + MET
  ΣFIC: 1
CD strains; [10]
  FIC: 0.5
  MIC alone: 0.125 µg/mL
  MIC combination: 0.062 µg/mL
CD strains; Test 4, CD strain VPI 10463, sum for combination CFM + MET
  ΣFIC: 1
CD strains; [11]
  FIC: 1
  MIC alone: 0.125 µg/mL
  MIC combination: 0.125 µg/mL
CD strains; Test 5, CD strain NR32889, sum for combination CFM + VAN
  ΣFIC: 2
CD strains; [12]
  FIC: 0.25
  MIC alone: 0.125 µg/mL
  MIC combination: 0.031 µg/mL
CD strains; Test 6, CD strain NR32890, sum for combination CFM + VAN
  ΣFIC: 0.75
CD strains; [13]
  FIC: 0.5
  MIC alone: 0.125 µg/mL
  MIC combination: 0.062 µg/mL
CD strains; Test 7, CD strain NR32885, sum for combination CFM + VAN
  ΣFIC: 1
CD strains; [14]
  FIC: 0.25
  MIC alone: 0.125 µg/mL
  MIC combination: 0.031 µg/mL
CD strains; Test 8, CD strain NR32885, sum for combination CFM + MET
  ΣFIC: 0.375
CD strains; Test 9, CD strain NR32885, sum for combination CFM + VAN
  ΣFIC: 0.5
CD strains; [15]
  FIC: 0.031
  MIC alone: 0.125 µg/mL
  MIC combination: 0.0039 µg/mL
CD strains; Test 10, CD strain NR32885, sum for combination CFM + MET
  ΣFIC: 0.281
CD strains; Test 11, CD strain NR32885, sum for combination CFM + VAN
  ΣFIC: 0.5
CD strains; Test 12, CD strain NR32885, sum for combination CFM + MET
  ΣFIC: 0.281
CD strains; [16]
  FIC: 0.25
  MIC combination: 0.062 µg/mL
CD strains; Test 13, CD strain BAA1805 (BI/NAP1/027), sum for combination CFM + VAN
  ΣFIC: 0.312
CD strains; [17]
  FIC: 0.015
  MIC combination: 0.0039 µg/mL
CD strains; Test 14, CD strain BAA1805 (BI/NAP1/027), sum for combination CFM + MET
  ΣFIC: 0.031
CD strains; [18]
  FIC: 0.06
  MIC combination: 0.015 µg/mL
CD strains; Test 15, CD strain BAA1805 (BI/NAP1/027), sum for combination CFM + MET
  ΣFIC: 0.185
CD strains; [19]
  FIC: 0.25
  MIC combination: 0.062 µg/mL
CD strains; Test 16, CD strain BAA1805 (BI/NAP1/027), sum for combination CFM + VAN
  ΣFIC: 0.5
CD strains; [20]
  FIC: 0.031
  MIC combination: 0.0078 µg/mL
CD strains; Test 17, CD strain BAA1805 (BI/NAP1/027), sum for combination CFM + MET
  ΣFIC: 0.156
CD strains; Test 18, CD strain NR32888, sum for combination CFM + VAN
  ΣFIC: 1
CD strains; Test 19, CD strain NR32888, sum for combination CFM + MET
  ΣFIC: 0.125
